Measured values from ChEMBL document CHEMBL5465560, “Selectivity Literature for EUbOPEN Chemogenomic Library” (2024).
Values belong to the compound of their own block, whether it stands above or below them.

Experiments:
[1] = biological target: T1, Ephrin type-A receptor 8 (Homo sapiens) (UniProt P29322); conditions: at 10 µM
T1 sequence (whole entry): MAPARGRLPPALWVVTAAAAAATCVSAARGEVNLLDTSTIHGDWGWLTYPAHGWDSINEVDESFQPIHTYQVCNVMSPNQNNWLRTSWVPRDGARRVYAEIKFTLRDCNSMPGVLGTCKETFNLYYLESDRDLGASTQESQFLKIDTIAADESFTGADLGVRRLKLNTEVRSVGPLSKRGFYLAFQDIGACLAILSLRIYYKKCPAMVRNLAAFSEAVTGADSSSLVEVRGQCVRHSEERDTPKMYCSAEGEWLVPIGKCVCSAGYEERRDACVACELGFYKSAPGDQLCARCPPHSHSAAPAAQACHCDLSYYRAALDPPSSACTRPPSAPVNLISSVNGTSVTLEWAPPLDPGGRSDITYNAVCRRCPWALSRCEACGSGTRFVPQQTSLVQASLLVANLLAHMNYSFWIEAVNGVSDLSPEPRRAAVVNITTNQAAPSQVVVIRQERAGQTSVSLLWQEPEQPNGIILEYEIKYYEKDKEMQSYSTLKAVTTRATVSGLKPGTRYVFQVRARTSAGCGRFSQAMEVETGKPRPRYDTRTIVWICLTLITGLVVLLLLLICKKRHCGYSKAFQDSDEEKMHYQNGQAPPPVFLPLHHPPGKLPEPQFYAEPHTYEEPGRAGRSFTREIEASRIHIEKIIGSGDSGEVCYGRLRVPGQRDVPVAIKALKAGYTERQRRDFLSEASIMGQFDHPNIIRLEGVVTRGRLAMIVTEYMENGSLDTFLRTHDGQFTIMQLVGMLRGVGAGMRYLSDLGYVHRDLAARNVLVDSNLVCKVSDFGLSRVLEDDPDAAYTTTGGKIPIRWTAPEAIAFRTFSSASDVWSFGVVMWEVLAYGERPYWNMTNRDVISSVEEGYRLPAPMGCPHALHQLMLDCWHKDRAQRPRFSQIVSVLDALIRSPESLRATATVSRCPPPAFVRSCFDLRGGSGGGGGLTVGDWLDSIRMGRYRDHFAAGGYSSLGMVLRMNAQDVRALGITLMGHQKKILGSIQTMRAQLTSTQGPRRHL

[2] = biological target: T2, Serine/threonine-protein kinase BRSK1 (Homo sapiens) (UniProt Q8TDC3); assay: Selectivity interaction (Kinase panel (Z-LYTE Assay)) EUB0001632a BRSK1; conditions: at 10 µM
T2 sequence (whole entry): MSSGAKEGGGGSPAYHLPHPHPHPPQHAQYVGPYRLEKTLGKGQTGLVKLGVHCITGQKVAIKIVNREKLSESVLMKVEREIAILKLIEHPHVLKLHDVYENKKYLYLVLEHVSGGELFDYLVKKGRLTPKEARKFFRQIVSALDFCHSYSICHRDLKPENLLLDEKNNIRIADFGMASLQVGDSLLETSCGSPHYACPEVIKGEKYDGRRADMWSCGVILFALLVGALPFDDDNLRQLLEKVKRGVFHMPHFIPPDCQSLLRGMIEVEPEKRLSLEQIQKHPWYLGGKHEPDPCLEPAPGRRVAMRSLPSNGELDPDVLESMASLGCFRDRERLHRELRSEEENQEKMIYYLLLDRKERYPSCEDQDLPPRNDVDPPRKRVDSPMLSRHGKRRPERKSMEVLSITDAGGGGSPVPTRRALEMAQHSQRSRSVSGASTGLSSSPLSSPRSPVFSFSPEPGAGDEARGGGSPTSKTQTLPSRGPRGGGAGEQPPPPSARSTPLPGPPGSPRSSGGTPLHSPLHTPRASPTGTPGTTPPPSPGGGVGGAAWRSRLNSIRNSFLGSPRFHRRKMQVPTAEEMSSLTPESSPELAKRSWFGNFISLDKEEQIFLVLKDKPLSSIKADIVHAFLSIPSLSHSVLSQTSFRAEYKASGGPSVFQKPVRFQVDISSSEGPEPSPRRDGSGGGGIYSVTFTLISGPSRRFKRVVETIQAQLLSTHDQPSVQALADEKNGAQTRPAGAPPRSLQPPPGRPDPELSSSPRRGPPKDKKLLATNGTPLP

[3] = biological target: Mitogen-activated protein kinase 10 (Homo sapiens, UniProt P53779); assay: Selectivity interaction (Upstate Kinase Profiler service (Millipore)) EUB0000056c MAPK10; conditions: at 1 µM
Chain of Mitogen-activated protein kinase 10 (P53779 whole entry): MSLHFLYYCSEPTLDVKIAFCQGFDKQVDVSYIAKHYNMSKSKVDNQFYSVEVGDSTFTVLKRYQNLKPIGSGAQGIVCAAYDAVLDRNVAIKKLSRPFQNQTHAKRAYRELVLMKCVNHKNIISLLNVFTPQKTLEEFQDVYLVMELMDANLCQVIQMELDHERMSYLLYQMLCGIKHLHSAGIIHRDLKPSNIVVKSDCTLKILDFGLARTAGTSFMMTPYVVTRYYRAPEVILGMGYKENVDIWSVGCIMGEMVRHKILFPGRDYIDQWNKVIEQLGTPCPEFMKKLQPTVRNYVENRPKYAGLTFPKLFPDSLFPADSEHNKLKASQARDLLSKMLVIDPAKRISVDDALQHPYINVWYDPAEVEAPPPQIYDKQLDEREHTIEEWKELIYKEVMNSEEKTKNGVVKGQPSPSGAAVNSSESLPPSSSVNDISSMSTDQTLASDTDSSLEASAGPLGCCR

[4] = biological target: AP2-associated protein kinase 1 (Homo sapiens, UniProt Q2M2I8); assay: Selectivity interaction (KinomeScan (DiscoverX)) EUB0000045b AAK1
Chain of AP2-associated protein kinase 1 (Q2M2I8 whole entry, looked up): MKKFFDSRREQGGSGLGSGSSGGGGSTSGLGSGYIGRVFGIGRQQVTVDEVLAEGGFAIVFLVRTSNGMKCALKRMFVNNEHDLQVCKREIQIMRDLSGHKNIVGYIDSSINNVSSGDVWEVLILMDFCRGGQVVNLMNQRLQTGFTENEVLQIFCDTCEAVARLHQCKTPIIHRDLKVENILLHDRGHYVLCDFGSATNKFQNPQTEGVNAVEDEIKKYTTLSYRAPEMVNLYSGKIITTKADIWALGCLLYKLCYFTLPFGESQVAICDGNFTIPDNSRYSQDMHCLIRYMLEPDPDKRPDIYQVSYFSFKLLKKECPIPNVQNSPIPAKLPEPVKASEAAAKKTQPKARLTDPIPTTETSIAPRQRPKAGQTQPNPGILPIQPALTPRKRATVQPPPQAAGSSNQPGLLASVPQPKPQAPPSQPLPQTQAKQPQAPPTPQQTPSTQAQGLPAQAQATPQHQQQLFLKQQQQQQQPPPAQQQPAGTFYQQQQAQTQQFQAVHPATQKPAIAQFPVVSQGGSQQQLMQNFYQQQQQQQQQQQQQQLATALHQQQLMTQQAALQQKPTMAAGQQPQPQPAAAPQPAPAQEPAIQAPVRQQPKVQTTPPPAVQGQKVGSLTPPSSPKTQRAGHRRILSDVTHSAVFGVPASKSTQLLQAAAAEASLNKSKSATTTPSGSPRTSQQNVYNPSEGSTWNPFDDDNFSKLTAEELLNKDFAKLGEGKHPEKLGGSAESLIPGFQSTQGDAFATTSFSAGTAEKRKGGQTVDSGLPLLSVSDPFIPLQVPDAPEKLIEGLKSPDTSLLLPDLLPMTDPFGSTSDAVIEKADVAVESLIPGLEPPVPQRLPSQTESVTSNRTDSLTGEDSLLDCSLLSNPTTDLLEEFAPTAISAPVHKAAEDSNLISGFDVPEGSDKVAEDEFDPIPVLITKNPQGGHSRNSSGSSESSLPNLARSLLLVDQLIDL

[5] = biological target: Sigma non-opioid intracellular receptor 1 (Homo sapiens) (UniProt Q99720); assay: Selectivity interaction (GPCR panel (PDSP screen)) EUB0000311b SIGMAR1; conditions: at 10 µM
Chain of Sigma non-opioid intracellular receptor 1 (Homo sapiens) (Q99720 whole entry): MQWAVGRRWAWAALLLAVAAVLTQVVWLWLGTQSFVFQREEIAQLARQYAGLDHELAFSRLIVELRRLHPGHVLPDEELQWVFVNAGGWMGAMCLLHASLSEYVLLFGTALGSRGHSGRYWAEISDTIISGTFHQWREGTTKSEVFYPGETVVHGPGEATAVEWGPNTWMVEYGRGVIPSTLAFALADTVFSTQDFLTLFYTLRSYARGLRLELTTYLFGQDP

Structure (SMILES): Cc1cc([C@@H](C)Nc2ccccc2C(=O)O)c2nc(N3CCOCC3)cc(=O)n2c1 [AZD-6482]
- % of control [1]: 96%

Structure (SMILES): Cn1cc(-n2cnc3c(NCc4nc5cc(Cl)c(Cl)cc5[nH]4)nc(N4CCOCC4)nc32)cn1
- % of control [2]: 11.9%

Structure (SMILES): C=CC(=O)Nc1cc(-n2c(=O)ccc3cnc4ccc(-c5ccc(NS(C)(=O)=O)cc5)cc4c32)ccc1C
- % of control ([4]; at 1 µM): 93%
- % of control ([4]; at 10 µM): 58%

Now from value to compound:

- % of inhibition [3]: -5%
Structure (SMILES): Cc1ccc(-c2ccc3c(ccc4sc5c(c43)NC[C@@H](C)NC5=O)n2)cn1

- % of inhibition [5]: 30.5%
Structure (SMILES): CCc1ccccc1C(=O)Nc1n[nH]c2c(C)c(F)c(C3C(C#N)=C(C)N(C)C(C)=C3C#N)cc12 [BAY-3827]
